Key:
primary CD4+ T cells = test: MTT and flow cytometric viability assays in primary CD4+ T cells; assay type: cell-based, human
Procedure: CD4^+ T cells were plated at a density of 1×10^5 cells in 200 μL R10-50 in flat-bottom 96-well plates 4 days post-stimulation with PHA. Cells were exposed to titrations of plecomacrolides or solvent controls for 72 hours in culture, at which point viability was assessed relative to solvent by MTT assay in experimental duplicates. Equal volumes of cell culture medium containing CD4^+ T cells were pelleted in 96-well round-bottom plates and incubated in 4.5 mg/mL MTT (Fisher, M6494) in R10 with no Phenol Red at 37° C. until the purple formazan signal was clearly visible. The absorbance of cell pellets resuspended in DMSO was measured at 595 nm on a Molecular Devices Emax precision microplate reader and compared a standard curve of known viable cell numbers to ensure the experimental samples fell within the linear range of the assay.

[1] = test system: lysosomal pH in human monocyte-derive macrophages (MDMs); test: Lysosensor Yellow/Blue dextran analysis of lysosomal pH in MDMs; assay type: cell-based; conditions: 1 hour, read-out: EC50 for lysosome neutralization
Procedure: To measure the lysosomal pH in human monocyte-derive macrophages (MDMs), MDMs adhered to 24-well plates were exposed to 500 μg/mL Lysosensor Yellow/Blue dextran, 10,000 MW (ThermoFisher, L22460) in R10 for 24 hours. MDMs were then exposed to plecomacrolides for 1 hour and harvested with 0.05% Trypsin-EDTA (Gibco 25300054). Cells were washed twice in FACS buffer, and analyzed on a MoFlo Astrios flow cytometer, with blue signal excited from a 354 nm laser and yellow signal excited from a 405 nm laser. A standard curve was generated by resuspending MDMs in equilibration buffers of known pH as previously described. The ratio of blue:yellow fluorescence intensity was calculated for each cell, the median blue:yellow ratio for the cell population for each condition was obtained, and the lysosomal pH in MDMs was calculated for each condition using the standard curve.
Lysosensor Yellow/Blue Dextran Analysis of Lysosomal pH. To measure the lysosomal pH in human MDMs, MDMs adhered to 24-well plates were exposed to 500 μg/mL Lysosensor Yellow/Blue dextran, 10,000 molecular weight (MVV) in R10 for 24 h. MDMs were then exposed to plecomacrolides for 1 h and harvested with 0.05% Trypsin-(ethylenedinitrilo)tetraacetic acid (EDTA). Cells were washed twice in FACS buffer, and analyzed on a flow cytometer, with blue signal excited from a 354-nm laser and yellow signal excited from a 405-nm laser. A standard curve was generated by resuspending MDMs in equilibration buffers of known pH. The ratio of blue:yellow fluorescence intensity was calculated for each cell, the median blue:yellow ratio for the cell population for each condition was obtained, and the lysosomal pH in MDMs was calculated for each condition using the standard curve.

[2] = test system: lysosome neutralization in primary CD4+ T cells; test: Lysotracker Red flow cytometry assay in primary CD4+ T cells; assay type: cell-based, human
Procedure: Cells were treated with plecomacrolides at a density of 1×10^6 cells/mL for 24 hours, then treated with 100 nM LysoTracker Red DND-99 (Fisher, L7528) in PBS at a density of 1×10^6 cells/mL for 1 hour at 37° C., washed twice in PBS, and fixed in 2% PFA before flow cytometric analysis on a BioRad Ze5 flow cytometer.
Lysotracker Flow Cytometry Assay. Cells were treated with plecomacrolides at a density of 1×10^6 cells per milliliter for 24 h, and then treated with 100 nM LysoTracker Red DND-99 in phosphate-buffered saline (PBS) at a density of 1×10^6 cells per milliliter for 1 h at 37° C., washed twice in PBS, and fixed in 2% paraformaldehyde (PFA) before flow cytometric analysis on a flow cytometer.

CD4+ T cells = test: Cell cycle analysis of CD4+ T cells; assay type: cell-based, human; conditions: 0.5 nM
[3] = test system: ARF-1:AP-1:Nef:MHC-I complex; test: Differential scanning fluorimetry (DSF) thermal stability assay; assay type: binding; conditions: 1-hour incubation, compared to solvent control
Excerpt: The His6- and GST-tagged AP-1 core, mouse AP1M1 (157-423) (referred as μ1-CTD), human Arf1 (17-181)-Q71L, human MHC-I (338-365)-NL4-3 Nef, HIV-1 NL4-3 Nef constructs and protein purification were previously described. For GST pull down assay, codon-optimized human MHC-I (338-365) was subcloned into pGST parallel2 vector using BamHI/Xhol sites, fused an N-terminal GST tag and a TEV cleavage site. PCR encoding HIV-1 Nef or SlVsmm Nef fused with GFP was subcloned into LIC 2BT vector (Macrolab), expressed as a TEV-cleavable N-terminal His6 tag and C-terminal uncleavable GFP tag.
Recombinant AP-1 core was mixed with Arf1-GTP and MHC-I-Nef at the molar ratio of 1:4:6, then incubated at 4° C. overnight. […]
DSF assays were performed using a Stratagene Mx3000P RT-PCR (Stratagene, La Jolla, CA) to monitor protein unfolding by the florescence increasing of SYPRO Orang (Invitrogen, Carlsbad, Calif.). […] The Fluorescent intensity was measured using the SYBR green filter over the temperature range of 25 to 90° C. in 1 degree/min increments. After subtracting fluorescence from DMSO control reaction without protein, the average fluorescent intensities were plotted as a function of temperature. […] The fluorescence intensity (before post-peak region) was fitted to Boltzmann equation to obtain melting temperature (Tm).

SMILES: C/C=C/[C@H]1O[C@@](O)([C@@H](C)[C@H](O)[C@H](C)[C@H]2OC(=O)/C(OC)=C/C(C)=C/[C@@H](C)[C@@H](O)[C@@H](CC)[C@@H](O)[C@H](C)C/C(C)=C/C=C/[C@@H]2OC)C[C@@H](O[C@H]2C[C@@H](O)[C@H](OC(N)=O)[C@@H](C)O2)[C@@H]1C [CMA, concanamycin A]
- viability (primary CD4+ T cells; 0.5 nM, 24-h incubation): 95%
- difference between the 50% effective and toxic concentrations (EC50 and TC50) (primary CD4+ T cells; Nef activity 24 hours, viability 72 hours): 11 fold
- EC50 [1]: 12.7 nM
- difference between EC50 for lysosome neutralization and EC50 for Nef inhibition [2]: 27 fold
- EC50 ([2]; 24 hours): 1.9 nM
- decrease in cells in G2/M (CD4+ T cells): not statistically significant
- increase in the proportion of cells in S phase compared to solvent control (CD4+ T cells): 1.15 fold
- change in Tm of complex components [3]: No significant changes in Tm
